Drawing on patent publication US9308194B2, “Indanyloxyphenylcyclopropanecarboxylic acids” (Boehringer Ingelheim International GmbH, priority 2013, dated 2016), this text covers EC50 for 46 compounds.

In this assay the target is human GPR40 receptor (Homo sapiens, UniProt O14842). Briefly: IP1 accumulation measurements using the IPOne assay system in 1321N1 cells stably expressing human GPR40 receptor. The class given is cell-based. The note with it: 1321N1 cells expressing human GPR40, 1 hour stimulation at 37° C., Table 2. The protocol: (§1) IP1 is assayed according to the Manufacturer's description (Cisbio Bioassays, France). In brief, the assay is started by substitution of the culture medium by stimulation buffer (Hepes 10 mM, CaCl2 1 mM, MgCl2 0.5 mM, KCl 4.2 mM, NaCl 146 mM and glucose 5.5 mM, pH 7.4) without LiCl or with […]. Cells are stimulated for 1 hour at 37° C., 5 or 10% CO2 by addition of the compounds that are diluted in stimulation buffer containing LiCl yielding a final LiCl concentration of 50 mM. Assays are stopped by adding HTRF-conjugates (IP1-d2 and Anti-IP1 cryptate Tb) and lysis buffer, provided by the manufacturer. After an incubation time of 1 hour at room temperature plates are measured using an EnVision™, Perkin Elmer. The obtained fluorescence ratios at […] are then used to calculate the pEC50 values using GraphPad Prism 5 (Graphpad Software Inc, USA) or Assay Explorer 3.3 Software (Accelrys, Inc.) by interpolation using an IP1 reference curve and subsequent sigmoidal curve fitting allowing for a variable hill slope.
human GPR40 receptor, sequence (O14842 whole entry): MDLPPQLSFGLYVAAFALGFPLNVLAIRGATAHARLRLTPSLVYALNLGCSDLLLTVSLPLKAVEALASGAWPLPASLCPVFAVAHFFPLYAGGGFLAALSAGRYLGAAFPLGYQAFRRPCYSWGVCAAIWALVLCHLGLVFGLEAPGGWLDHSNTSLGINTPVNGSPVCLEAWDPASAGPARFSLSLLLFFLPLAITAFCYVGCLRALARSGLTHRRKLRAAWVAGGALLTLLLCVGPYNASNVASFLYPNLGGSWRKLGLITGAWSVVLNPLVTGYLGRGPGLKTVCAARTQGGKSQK
as §1, with “IP1 accumulation measurements using the IPOne assay system—1321N1 cells stably expressing human GPR40 receptor (Euroscreen, Belgium) are seeded 24 h before the assay in black clear-bottom collagen-coated or white 384-well plates in culture medium containing 10% FCS, 1% Na-Pyruvate and 400 μg/mL G418. IP1 is” for “IP1 is”

`Cc1noc(-c2ccc(Oc3ccc(F)c4c3CC[C@H]4Oc3ccc([C@H]4C[C@@H]4C(=O)O)cc3)cc2)n1` [Example 32] registered an EC50 of 4 nM.
Take `Cc1nc(-c2ccc(Oc3ccc(F)c4c3CC[C@H]4Oc3ccc([C@H]4C[C@@H]4C(=O)O)cc3)cc2)no1` [Example 35]: the 50% effective concentration (EC50) was 3 nM.
In turn, `Cc1cc(C#N)ccc1Oc1ccc(F)c2c1CC[C@H]2Oc1ccc([C@H]2C[C@@H]2C(=O)O)cc1` [Example 25] gave a concentration for a half-maximal effect (EC50) of 2 nM. Against the preceding compound, the EC50 is about 1.5-fold lower.
`O=C(O)[C@H]1C[C@@H]1c1ccc(O[C@@H]2CCc3c(Oc4ccc(OCC5(O)CCOCC5)cc4)ccc(F)c32)cc1` [Example 5] came in with an EC50 of 7 nM. Compared with the last compound, the EC50 is about 3.5-fold higher.
`CN(CCO)C(=O)c1ccc(Oc2ccc(F)c3c2CC[C@H]3Oc2ccc([C@H]3C[C@@H]3C(=O)O)cc2)cc1` [Example 19] registered a 50% effective concentration (EC50) of 48 nM. Against the preceding compound, the EC50 is about 6.9-fold higher.
For `COCCOc1ccc(Oc2ccc(F)c3c2CC[C@H]3Oc2ccc([C@H]3C[C@@H]3C(=O)O)cc2)cc1` [Example 8], the EC50 came out at 5 nM.
In the case of `CC(C)c1ccn(-c2ccc(Oc3ccc(F)c4c3CC[C@H]4Oc3ccc([C@H]4C[C@@H]4C(=O)O)cc3)cc2)n1` [Example 30] it was 8 nM; in that of `O=C(O)[C@H]1C[C@@H]1c1ccc(O[C@@H]2CCc3c(Oc4ccc(OCCN5CCOCC5)cc4)ccc(F)c32)cc1` [Example 14], 3 nM.
The compound `N#Cc1ccc(Oc2ccc(F)c3c2CC[C@H]3Oc2ccc([C@H]3C[C@@H]3C(=O)O)cc2)cc1` [Example 24] gave an EC50 of 2 nM.
Compound `N#Cc1ccc2c(c1Cc1ccc(Cl)nc1)CC[C@H]2Oc1ccc([C@H]2C[C@@H]2C(=O)O)cc1` [Example 40, (1S,2S)-2-{4-[(R)-4-(6-Chloro-pyridin-3-ylmethyl)-5-cyano-indan-1-yloxy]-phenyl}-cyclopropanecarboxylic acid] displayed an EC50 of 45 nM.
Consider `Cc1cc(C#N)cc(C)c1S(=O)(=O)c1cccc2c1CC[C@H]2Oc1ccc([C@H]2C[C@@H]2C(=O)O)cc1` [Example 41], for which the midpoint of the response, the EC50, lay at 12 nM.
In turn, `O=C(O)C1CC1c1ccc(O[C@@H]2CCc3c2cccc3S(=O)(=O)c2ccccc2)cc1` (stereo partly shown) [Example 43] came in with an EC50 of 37 nM.
Turning to `Cc1nc(-c2ccc(Oc3ccc(F)c4c3CC[C@H]4Oc3ccc([C@H]4C[C@@H]4C(=O)O)cc3)cc2)nn1C` [Example 33], it took 5 nM to reach a half-maximal effect (EC50).
`O=C(O)[C@H]1C[C@@H]1c1ccc(O[C@@H]2CCc3c(Oc4ccc(C(=O)N5CCOCC5)cc4)ccc(F)c32)cc1` [Example 22]: the midpoint of the response, the EC50, lay at 27 nM.
In the case of `CNC(=O)c1ccc(Oc2ccc(F)c3c2CC[C@H]3Oc2ccc([C@H]3C[C@@H]3C(=O)O)cc2)cc1` [Example 17], the 50% effective concentration (EC50) was 9 nM.
`Cc1ccc2cc(Oc3ccc(F)c4c3CC[C@H]4Oc3ccc([C@H]4C[C@@H]4C(=O)O)cc3)ccc2n1` [Example 39] yielded an EC50 of 6 nM. This EC50 is about 1.5-fold lower than that of the compound before.
In the case of `COc1ccc(Cc2c(C#N)ccc3c2CC[C@H]3Oc2ccc([C@H]3C[C@@H]3C(=O)O)cc2)cn1` [Example 46, (1S,2S)-2-{4-[(R)-5-Cyano-4-(6-methoxy-pyridin-3-ylmethyl)-indan-1-yloxy]-phenyl}-cyclopropanecarboxylic acid], the 50% effective concentration (EC50) worked out at 8 nM.
With `CS(=O)(=O)CCCOc1ccc(Oc2ccc(F)c3c2CC[C@H]3Oc2ccc([C@H]3C[C@@H]3C(=O)O)cc2)cc1` [Example 7], the EC50 came out at 4 nM.
`O=C(NCC1CC1)c1ccc(Oc2ccc(F)c3c2CC[C@H]3Oc2ccc([C@H]3C[C@@H]3C(=O)O)cc2)cc1` [Example 18] showed an EC50 of 6 nM. This EC50 lies about 1.5-fold higher than the previous one.
In the case of `O=C(O)c1ccc(Oc2ccc(F)c3c2CC[C@H]3Oc2ccc([C@H]3C[C@@H]3C(=O)O)cc2)cc1` [Example 16], the 50% effective concentration (EC50) worked out at 92 nM.
Consider `O=C(O)[C@H]1C[C@@H]1c1ccc(O[C@@H]2CCc3c(Oc4ccc(OCc5ccccc5)cc4)ccc(F)c32)cc1` [Example 1], for which the concentration for a half-maximal effect (EC50) is 6 nM.
`CC(C)(O)CCOc1ccc(Oc2ccc(F)c3c2CC[C@H]3Oc2ccc([C@H]3C[C@@H]3C(=O)O)cc2)cc1F` [Example 11]: the EC50 stood at 3 nM.
For `CS(=O)(=O)CCCOc1ccc(Oc2ccc(F)c3c2CC[C@H]3Oc2ccc([C@H]3C[C@@H]3C(=O)O)cc2)cc1F` [Example 15] the value was 8 nM; for `Cc1cccc(C)c1S(=O)(=O)c1cccc2c1CC[C@H]2Oc1ccc([C@H]2C[C@@H]2C(=O)O)cc1` [Example 42], 4 nM.
For `CC(C)(O)CCOc1ccc(Oc2ccc(F)c3c2CC[C@H]3Oc2ccc([C@H]3C[C@@H]3C(=O)O)cc2)cc1` [Example 4] the value was 5 nM; for `CN(C)C(=O)c1ccc(Oc2ccc(F)c3c2CC[C@H]3Oc2ccc([C@H]3C[C@@H]3C(=O)O)cc2)cc1` [Example 20], 11 nM.
As for `Cn1nnc(-c2ccc(Oc3ccc(F)c4c3CC[C@H]4Oc3ccc([C@H]4C[C@@H]4C(=O)O)cc3)cc2)n1` [Example 29], the concentration for a half-maximal effect (EC50) was 3 nM. Compared with the last compound, the EC50 is about 3.7-fold lower.
`O=C(O)[C@H]1C[C@@H]1c1ccc(O[C@@H]2CCc3c(Oc4ccc(OCc5ccccc5)c(F)c4)ccc(F)c32)cc1` [Example 3] had an EC50 of 5 nM.
Compound `COc1cc(Oc2ccc(F)c3c2CC[C@H]3Oc2ccc([C@H]3C[C@@H]3C(=O)O)cc2)ccc1C#N` [Example 27] had an EC50 of 2 nM.
Compound `Cc1nc2ccc(Oc3ccc(F)c4c3CC[C@H]4Oc3ccc([C@H]4C[C@@H]4C(=O)O)cc3)cc2s1` [Example 37] registered an EC50 of 2 nM.
For `CS(=O)(=O)c1ccc(Oc2ccc(F)c3c2CC[C@H]3Oc2ccc([C@H]3C[C@@H]3C(=O)O)cc2)cc1` [Example 38] the value was 27 nM; for `N#Cc1ccc(Oc2ccc(F)c3c2CC[C@H]3Oc2ccc([C@H]3C[C@@H]3C(=O)O)cc2)c(F)c1` [Example 26], 19 nM.
As for `O=C(O)[C@H]1C[C@@H]1c1ccc(O[C@@H]2CCc3c(Oc4ccccc4)ccc(F)c32)cc1` [Example 45, (1S,2S)-2-[4-((R)-7-Fluoro-4-phenoxy-indan-1-yloxy)-phenyl]-cyclopropanecarboxylic acid], the concentration for a half-maximal effect (EC50) was 2 nM. This EC50 is about 9.5-fold lower than that of the compound before.
Turning to `O=C(NC1CCOCC1)c1ccc(Oc2ccc(F)c3c2CC[C@H]3Oc2ccc([C@H]3C[C@@H]3C(=O)O)cc2)cc1` [Example 21], the EC50 came out at 3 nM. This EC50 is about 1.5-fold higher than that of the compound before.
For `CCNC(=O)c1ccc(Oc2ccc(F)c3c2CC[C@H]3Oc2ccc([C@H]3C[C@@H]3C(=O)O)cc2)cc1` [Example 23] the value was 12 nM; for `CC(C)(O)CNC(=O)c1ccc(Oc2ccc(F)c3c2CC[C@H]3Oc2ccc([C@H]3C[C@@H]3C(=O)O)cc2)cc1` [Example 34], 16 nM.
`O=C(O)[C@H]1C[C@@H]1c1ccc(O[C@@H]2CCc3c(Oc4ccc(OC5CCOCC5)cc4)ccc(F)c32)cc1` [Example 6] returned an EC50 of 2 nM.
`Cn1ncc2ccc(Oc3ccc(F)c4c3CC[C@H]4Oc3ccc([C@H]4C[C@@H]4C(=O)O)cc3)cc21` [Example 36] gave an EC50 of 2 nM.
`Cc1cc(Oc2ccc(F)c3c2CC[C@H]3Oc2ccc([C@H]3C[C@@H]3C(=O)O)cc2)cc(C)c1OCCC(C)(C)O` [Example 31] yielded an EC50 of 9 nM.
With `O=C(O)[C@H]1C[C@@H]1c1ccc(O[C@@H]2CCc3c(Oc4ccc(O)cc4)ccc(F)c32)cc1` [Example 2], the EC50 came to 6 nM.
On to `O=C(O)[C@H]1C[C@@H]1c1ccc(O[C@@H]2CCc3c(Oc4ccc(OC5CCOCC5)c(F)c4)ccc(F)c32)cc1` [Example 12], for which the midpoint of the response, the EC50, lay at 4 nM.
`N#Cc1ccc(Oc2c(F)cc(F)c3c2CC[C@H]3Oc2ccc([C@H]3C[C@@H]3C(=O)O)cc2)cc1` [Example 28]: the 50% effective concentration (EC50) worked out at 1 nM.
For `CC(C)(O)COc1ccc(Oc2ccc(F)c3c2CC[C@H]3Oc2ccc([C@H]3C[C@@H]3C(=O)O)cc2)cc1` [Example 9], the EC50 turned out to be 5 nM.
In the case of `O=C(O)C1CC1c1ccc(O[C@@H]2CCc3c2cccc3[S+]([O-])c2ccccc2)cc1` (stereo partly shown) [Example 44] it was 197 nM.
In the case of `COCCOc1ccc(Oc2ccc(F)c3c2CC[C@H]3Oc2ccc([C@H]3C[C@@H]3C(=O)O)cc2)cc1F` [Example 13] it was 8 nM; in that of `O=C(O)[C@H]1C[C@@H]1c1ccc(O[C@@H]2CCc3c(Oc4ccc(OCCO)cc4)ccc(F)c32)cc1` [Example 10], 7 nM.

The EC50 is the midpoint of the concentration-response curve. Read a high EC50 as lower potency in that assay.
